Experiment [1] has as its target T1, CheWS (Treponema denticola, UniProt F7IUZ1). Put plainly: isothermal titration calorimetry with purified domain. It counts as binding. Further details: gene cheW-1; isolated CheRlike domain (residues 203–444). (In ITC the heat of successive injections is recorded.)
Target sequence in this assay (F7IUZ1 entry or part of it): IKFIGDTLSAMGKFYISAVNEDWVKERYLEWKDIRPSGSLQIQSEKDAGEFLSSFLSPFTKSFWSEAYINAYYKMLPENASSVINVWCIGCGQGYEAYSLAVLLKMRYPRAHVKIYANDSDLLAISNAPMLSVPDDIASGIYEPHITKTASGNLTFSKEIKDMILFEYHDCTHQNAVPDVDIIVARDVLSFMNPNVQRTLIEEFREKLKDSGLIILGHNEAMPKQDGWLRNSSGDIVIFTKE
For experiment [2], the target named is T1, CheWS. In words: isothermal titration calorimetry with purified protein. It counts as binding. Details: gene cheW-1; full-length CheWS (CheW-CheRlike), poly-His tag.
Target sequence in this assay (F7IUZ1 entry or part of it): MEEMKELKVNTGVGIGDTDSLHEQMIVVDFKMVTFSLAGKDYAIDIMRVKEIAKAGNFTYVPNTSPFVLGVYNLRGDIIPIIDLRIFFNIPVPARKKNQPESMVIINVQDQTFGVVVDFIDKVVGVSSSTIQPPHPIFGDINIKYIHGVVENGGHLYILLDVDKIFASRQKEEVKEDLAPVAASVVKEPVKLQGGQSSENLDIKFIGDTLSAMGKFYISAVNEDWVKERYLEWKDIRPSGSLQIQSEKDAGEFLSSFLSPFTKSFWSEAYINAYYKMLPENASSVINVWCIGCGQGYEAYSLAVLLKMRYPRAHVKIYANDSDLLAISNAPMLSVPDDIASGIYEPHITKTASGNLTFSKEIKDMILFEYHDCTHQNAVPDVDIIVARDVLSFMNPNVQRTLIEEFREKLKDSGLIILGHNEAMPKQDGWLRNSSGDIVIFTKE

Broadly, the Kd is the equilibrium constant for the complex coming apart. Read a high Kd as weaker binding. In turn, `C[S+](CC[C@H](N)C(=O)[O-])C[C@H]1O[C@@H](n2cnc3c(N)ncnc32)[C@H](O)[C@@H]1O` (some centres unmarked) [SAM, S-adenosylmethionine] yielded a Kd on CheWS [1] of approximately 18 µM. For `Nc1ncnc2c1ncn2[C@@H]1O[C@H](CSCC[C@H](N)C(=O)O)[C@@H](O)[C@H]1O` [SAH, S-adenosylhomocysteine], the Kd at CheWS [2] is approximately 17 µM.
